{"source": "patent US10532054B2", "about": "“Compounds for the prevention and treatment of cardiovascular diseases” (Resverlogix Corp., priority 2007, dated 2020)"}
{"compound": "Cc1cc(-c2nc3ccccc3c(=O)[nH]2)cc(C)c1OCCO", "note": "[Example 35, 2-(4-(2-hydroxyethoxy)-3,5-dimethylphenyl)quinazolin-4(3H)-one]", "melting point": "260 to 261 °C"}
{"compound": "O=c1[nH]c(-c2ccc3c(c2)OCCO3)nc2ccccc12", "note": "[Example 36, 2-(2,3-dihydrobenzo[b][1,4]dioxin-6-yl)quinazolin-4(3H)-one]", "melting point": "267 to 268 °C (dec.)"}
{"compound": "COc1cc(OC)c2c(=O)[nH]c(-c3ccc(N(C)C)c4ccccc34)nc2c1", "note": "[Example 37, 2-(4-(dimethylamino)naphthalen-1-yl)-5,7-dimethoxyquinazolin-4(3H)-one]", "melting point": "269 to 271 °C"}
{"compound": "COc1cc(OC)c2c(=O)[nH]c(-c3ccc(OCC(N)=O)cc3)nc2c1", "note": "[Example 38, 2-(4-(5,7-dimethoxy-4-oxo-3,4-dihydroquinazolin-2-yl)phenoxy)acetamide]", "melting point": "309 to 311 °C"}
{"compound": "O=C(O)COc1ccc(-c2nc3ccccc3c(=O)[nH]2)cc1", "note": "[Example 39, 2-(4-(4-oxo-3,4-dihydroquinazolin-2-yl)phenoxy)acetic acid]", "melting point": "285 to 287 °C"}
{"compound": "CN(C)c1ccc(-c2nc3ccccc3c(=O)[nH]2)c2ccccc12", "note": "[Example 40, 2-(4-(dimethylamino)naphthalen-1-yl)quinazolin-4(3H)-one]", "melting point": "224 to 226 °C"}
{"compound": "NC(=O)COc1ccc(-c2nc3ccccc3c(=O)[nH]2)cc1", "note": "[Example 41, 2-(4-(4-oxo-3,4-dihydroquinazolin-2-yl)phenoxy)acetamide]", "melting point": "277.5 to 278.5 °C"}
{"compound": "COc1cc(OC)c2c(=O)[nH]c(-c3ccc4c(c3)OCCO4)nc2c1", "note": "[Example 42, 2-(2,3-dihydrobenzo[b][1,4]dioxin-6-yl)-5,7-dimethoxyquinazolin-4(3H)-one]", "melting point": "307.5 to 309.6 °C"}
{"compound": "COc1cc2nc(-c3ccc(N(C)C)c4ccccc34)[nH]c(=O)c2cc1OC", "note": "[Example 44]", "melting point": "235.5 to 236.5 °C"}
{"compound": "O=c1[nH]c(-c2ccc(N(CCO)CCO)cc2)nc2ccccc12", "note": "[Example 45, 2-(4-(bis(2-hydroxyethyl)amino)phenyl)quinazolin-4(3H)-one]", "melting point": "228 to 230 °C"}
{"compound": "COc1cc(OC)c2c(=O)[nH]c(-c3ccc(N(CCO)CCO)cc3)nc2c1", "note": "[Example 46, 2-(4-(bis(2-hydroxyethyl)amino)phenyl)-5,7-dimethoxyquinazolin-4(3H)-one]", "melting point": "249 to 251 °C"}
{"compound": "COc1cc2nc(-c3ccc(N(CCO)CCO)cc3)[nH]c(=O)c2cc1OC", "note": "[Example 47, 2-(4-(bis(2-hydroxyethyl)amino)phenyl)-6,7-dimethoxyquinazolin-4(3H)-one]", "melting point": "268 to 270 °C"}
{"compound": "COc1cc2nc(-c3ccc4c(c3)OCCO4)[nH]c(=O)c2cc1OC", "note": "[Example 48, 2-(2,3-dihydrobenzo[b][1,4]dioxin-6-yl)-6,7-dimethoxyquinazolin-4(3H)-one]", "melting point": "316.4 to 318.2 °C"}
{"compound": "COc1cc(OC)c2c(=O)[nH]c(-c3cc(C)c(OCCN4CCOCC4)c(C)c3)cc2n1", "note": "[Example 50, 7-(3,5-dimethyl-4-(2-morpholinoethoxy)phenyl)-2,4-dimethoxy-1,6-naphthyridin-5(6H)-one]", "melting point": "212.5 to 212.9 °C"}
{"compound": "COc1cc2cc(-c3cc(C)c(O)c(C)c3)[nH]c(=O)c2c(OC)c1CN1CCOCC1", "note": "[Example 51, 3-(4-hydroxy-3,5-dimethylphenyl)-6,8-dimethoxy-7-(morpholinomethyl)isoquinolin-1(2H)-one]", "melting point": "158 to 161 °C"}
{"compound": "COc1cc2nc(-c3cc(C)c(O)c(C)c3)[nH]c(=O)c2cc1OC", "note": "[Example 52, 2-(4-hydroxy-3,5-dimethylphenyl)-6,7-dimethoxyquinazolin-4(3H)-one]", "melting point": "> 300 °C"}
{"compound": "COc1cc(OC)c2c(=O)[nH]c(-c3ccc(CCC(=O)O)cc3)nc2c1", "note": "[Example 53, 3-(4-(5,7-dimethoxy-4-oxo-3,4-dihydroquinazolin-2-yl)phenyl)propanoic acid]", "melting point": "250.6 to 251.1 °C"}
{"compound": "CC(=O)Nc1ccc2nc(-c3cc(C)c(O)c(C)c3)[nH]c(=O)c2c1", "note": "[Example 54, N-(2-(4-hydroxy-3,5-dimethylphenyl)-4-oxo-3,4-dihydroquinazolin-6-yl)acetamide]", "melting point": "336.5 °C (dec.)"}
{"compound": "COc1cc2nc(-c3cc(C)c(OCC(N)=O)c(C)c3)[nH]c(=O)c2cc1OC", "note": "[Example 55, 2-(4-(6,7-dimethoxy-4-oxo-3,4-dihydroquinazolin-2-yl)-2,6-dimethylphenoxy)acetamide]", "melting point": "354 to 356 °C"}
{"compound": "COc1cc(OC)c2c(=O)[nH]c(-c3ccc(OCCO)c(Cl)c3)nc2c1", "note": "[Example 56, 2-(3-chloro-4-(2-hydroxyethoxy)phenyl)-5,7-dimethoxyquinazolin-4(3H)-one]", "melting point": "287 to 288 °C (dec.)"}
{"compound": "COc1cc(OC)c2c(=O)[nH]c(-c3ccc(OCCO)c(OC)c3)nc2c1", "note": "[Example 57, 2-(4-(2-hydroxyethoxy)-3-methoxyphenyl)-5,7-dimethoxyquinazolin-4(3H)-one]", "melting point": "246 to 248 °C"}
{"compound": "COc1cc2nc(-c3cc(C)c(OCCO)c(C)c3)[nH]c(=O)c2cc1OC", "note": "[Example 58, 2-(4-(2-hydroxyethoxy)-3,5-dimethylphenyl)-6,7-dimethoxyquinazolin-4(3H)-one]", "melting point": "> 300 °C"}
{"compound": "COc1cc(OC)c2c(=O)[nH]c(-c3cc(C)c(NC(=O)CO)c(C)c3)nc2c1", "note": "[Example 60, N-(4-(5,7-dimethoxy-4-oxo-3,4-dihydroquinazolin-2-yl)-2,6-dimethylphenyl)-2-hydroxyacetamide]", "melting point": "190 to 192 °C"}
{"compound": "COc1cc(OC)c2c(=O)[nH]c(-c3cc(C)c(OCCO)c(C)c3)cc2n1", "note": "[Example 61, 7-(4-(2-hydroxyethoxy)-3,5-dimethylphenyl)-2,4-dimethoxy-1,6-naphthyridin-5(6H)-one]", "melting point": "224.9 to 225.4 °C"}
{"compound": "COc1cc(OC)c2c(=O)[nH]c(-c3cc(C)c(OC)c(C)c3)cc2n1", "note": "[Example 63, 2,4-dimethoxy-7-(4-methoxy-3,5-dimethylphenyl)-1,6-naphthyridin-5(6H)-one]", "melting point": "262 to 263 °C (dec.)"}
{"compound": "COc1cc(OC)c2c(=O)[nH]c(-c3cc(C)c(OCC(=O)O)c(C)c3)nc2c1", "note": "[Example 64, 2-(4-(5,7-dimethoxy-4-oxo-3,4-dihydroquinazolin-2-yl)-2,6-dimethylphenoxy)acetic acid]", "melting point": "270 to 272 °C"}
{"compound": "COc1cc(OC)c2c(=O)[nH]c(-c3ccc(NC(=O)CO)cc3)nc2c1", "note": "[Example 65, N-(4-(5,7-dimethoxy-4-oxo-3,4-dihydroquinazolin-2-yl)phenyl)-2-hydroxyacetamide]", "melting point": "318 to 319 °C"}
{"compound": "COc1cc(OC)c2c(=O)[nH]c(-c3cc(C)c(O)c(C)c3)nc2n1", "note": "[Example 68, 2-(4-hydroxy-3,5-dimethylphenyl)-5,7-dimethoxypyrido[2,3-d]pyrimidin-4(3H)-one]", "melting point": "297 to 299 °C"}
{"compound": "COc1cc(OC)c2c(=O)[nH]c(-c3ccc(OC)c(CN4CCOCC4)c3)nc2c1", "note": "[Example 69, 5,7-dimethoxy-2-(4-methoxy-3-(morpholinomethyl)phenyl)quinazolin-4(3H)-one]", "melting point": "282.7 to 284.5 °C"}
{"compound": "COc1cc(OC)c2c(=O)[nH]c(-c3cc(C)c(OCCO)c(C)c3)nc2n1", "note": "[Example 70, 2-(4-(2-hydroxyethoxy)-3,5-dimethylphenyl)-5,7-dimethoxypyrido[2,3-d]pyrimidin-4(3H)-one]", "melting point": "255 to 256 °C"}
{"compound": "COc1cc(OC)c2c(=O)nc(-c3cc(C)c(O)c(C)c3)n(C)c2c1", "note": "[Example 71, 2-(4-hydroxy-3,5-dimethylphenyl)-5,7-dimethoxy-1-methylquinazolin-4(1H)-one]", "melting point": "188.5 to 189.1 °C"}
{"compound": "CC(=O)Nc1ccc2nc(-c3cc(C)c(OCCO)c(C)c3)[nH]c(=O)c2c1", "note": "[Example 73, N-(2-(4-(2-hydroxyethoxy)-3,5-dimethylphenyl)-4-oxo-3,4-dihydroquinazolin-6-yl)acetamide]", "melting point": "> 300 °C"}
{"compound": "Cc1cc(-c2cc3nc(OC(C)C)cc(OC(C)C)c3c(=O)[nH]2)cc(C)c1O", "note": "[Example 74, 7-(4-hydroxy-3,5-dimethylphenyl)-2,4-diisopropoxy-1,6-naphthyridin-5(6H)-one]", "melting point": "206 to 208 °C"}
{"compound": "COc1cc(OC)c2c(=O)[nH]c(-c3ccc(O)c(CCO)c3)nc2c1", "note": "[Example 75, 2-(4-hydroxy-3-(2-hydroxyethyl)phenyl)-5,7-dimethoxyquinazolin-4(3H)-one]", "melting point": "249 to 250.3 °C"}
{"compound": "COc1cc(OC)c2cnc(-c3cc(C)c(OCCO)c(C)c3)nc2c1", "note": "[Example 76, 2-(4-(5,7-dimethoxyquinazolin-2-yl)-2,6-dimethylphenoxy)ethanol]", "melting point": "169 to 170 °C"}
{"compound": "Cc1cc(C)c2c(=O)[nH]c(-c3cc(C)c(OCCO)c(C)c3)nc2c1", "note": "[Example 77, 2-(4-(2-hydroxyethoxy)-3,5-dimethylphenyl)-5,7-dimethylquinazolin-4(3H)-one]", "melting point": "259.6 to 261.2 °C"}
{"compound": "COc1cc(OC)c2c(=O)[nH]c(-c3ccc(N(CCO)CCO)cc3)nc2n1", "note": "[Example 78, 2-(4-(bis(2-hydroxyethyl)amino)phenyl)-5,7-dimethoxy-pyrido[2,3-d]pyrimidin-4(3H)one]", "melting point": "277 to 279 °C"}
{"compound": "COCCOc1c(C)cc(-c2nc3cc(OC)cc(OC)c3c(=O)[nH]2)cc1C", "note": "[Example 79, 5,7-dimethoxy-2-(4-(2-methoxyethoxy)-3,5-dimethylphenyl)quinazolin-4(3H)-one]", "melting point": "201 to 202 °C"}
{"compound": "Cc1cc(-c2nc3cc(Cl)cc(Cl)c3c(=O)[nH]2)cc(C)c1OCCO", "note": "[Example 80, 5,7-dichloro-2-(4-(2-hydroxyethoxy)-3,5-dimethylphenyl)quinazolin-4(3H)-one]", "melting point": "260.8 to 262.6 °C"}
{"compound": "COc1cc2nc(-c3cc(C)c(O)c(C)c3)[nH]c(=O)c2c(OC)c1CN1CCOCC1", "note": "[Example 81, 2-(4-hydroxy-3,5-dimethylphenyl)-5,7-dimethoxy-6-(morpholinomethyl)quinazolin-4(3H)-one]", "melting point": "237 to 239.1 °C"}
{"compound": "COc1cc(OC)c2c(=O)[nH]c(-c3ccc(OCC(=O)O)c(OC)c3)nc2c1", "note": "[Example 103, 2-(4-(5,7-dimethoxy-4-oxo-3,4-dihydroquinazolin-2-yl)2-methoxyphenoxy)acetic acid]", "melting point": "275 to 277 °C"}
{"compound": "COc1cc(O)c2c(=O)[nH]c(-c3cc(C)c(O)c(C)c3)nc2c1", "note": "[Example 104, 5-hydroxy-2-(4-hydroxy-3,5-dimethylphenyl)-7-methoxyquinazolin-4(3H)-one]", "melting point": "291.3 to 293 °C"}
